One data set concerns behaviour. The data set can be described thus: Irwin's test (effects as regards behaviour). Type of data set: in vivo. As to conditions: rats, 20 mg/Kg i.p. The text has this:
Finally, preliminary studies on the effects as regards behaviour have been performed by means of Irwin's test, according to the method reported by Irwin S. in Gordon Res. Conf. on Medicinal Chem. 1959, 133, 1959, modified in that rats were used instead of mice.

In the next data set the test system is rabbit jejunum. The data set can be described thus: Spontaneous peristaltic activity on rabbit jejunum. As to conditions: Oryctolagus cuniculus; for Emax: read-out: maximum effect % (max. increase of extent of the contractions); for pEC50: read-out: CE50 (concentration able to produce 50% of the maximum effect). The procedure:
(§1) In vitro tests were carried out to evaluate the effect of the compounds of formula I and some of their pharmacologically acceptable salts on physiological peristalsis, on the action of the histamine, serotonine and acetylcholine.
The action on physiological peristalsis was evaluated on an isolated rabbit jejunum preparation, according to the method reported by Magnus J. in Pfluegers Arch. Gen. Physiol.
The rabbit jejunum was used to evaluate the extent of the spontaneous peristaltic contractions in the presence and in the absence of the derivatives being studied.

For data set [1], the system named is serotonine on the fornix of the rat stomach. The data set can be described thus: Influence on the serotonine activity on the fornix of the rat stomach. Also on record: species or system Wistar rat. The procedure:
as §1
The effect on the serotonine was evaluated on the fornix of the stomach of a rat according to the method of Vane J. R. in Br. J. Pharmacol. Cheroother. 12, 344, 1957.
The action on the serotonine was evaluated on the fornix of the stomach of rat, also taken from Wistar rat sacrificed after 24 hours fasting, following the technique reported by Vane J. R. in Br. J. Pharmacol. Chemoter. 12, 344, 1957, as previously described.

The test system of a further data set is intestinal transit. The data set is described as follows: Intestinal transit of an opaque meal in the mouse (prokinetic action). In kind it is in vivo, Swiss albino mice. The procedure:
In tables 5, 6, 7 and 8 the significance was determined by means of Student's test on absolute values with respect to the relative controls using 10 animals per group in tests 5, 6 and 7.
The prokinetic action was evaluated in vivo on Swiss albino mice determining the influence of the products on the intestinal transit of an opaque meal, according to the method described by Macht D. I. and Barba-Gose J. in J. Amer. Pharm. Ass. 20, 558, 1931 and later by Witkin L. B. et al. in J. Pharmacol. Exp. Ther. […]
The method involved the administration of an opaque meal to the mice after a 24 hour fast, through gastric probe, 15 minutes after the administration of the product.
After sacrificing the animals 20 minutes after the administration of the opaque meal, the percentage of the length of the intestine travelled by the opaque meal was calculated.

In another data set the test system is cholinesterase. The following applies: cited from earlier work.
A short description of data set [2]: Study of acute toxicity (LD50). The following applies: rat, in vivo, iv; Sprague-Dawley rats of both sexes, observation period of 14 days. In kind it is in vivo. The procedure:
The acute toxicity (LD50)of the derivatives described in this invention was evaluated according to the method reported by Lietchfield J. T. and Wilcoxon F. in J. Pharmacol. Exp. Ther. 96, 99, 1949, on Sprague-Dawley rats of both sexes, over an observation period of 14 days from the day of treatment.

These results are taken from patent US5446152A, “Heterocyclic compounds active in gastro-intestinal pathologies” (priority 1993, dated 1995).

pEC50: −log10 of the molar value. Where a name gives a salt, the structure may show the parent alone. Read-outs that look alike come from different tables or passages of the source.

In the case of `CCN(CC)CCCN1CNc2ccc(Cl)cc2C1=O` [Example 3, 6-Chloro-3-3-(diethylamino)propyl-2,3-dihydro-4(1H)-quinazolinone oxalate], in the data set with behaviour, the “variations with respect to the controls in behavioural parameters (Irwin's test)” value is “no significant variations with respect to the controls”. Besides, the Emax with rabbit jejunum (isolated rabbit jejunum, spontaneous peristaltic contractions) turned out to be 25%. Moreover, the pEC50 in the data set with rabbit jejunum (isolated rabbit jejunum) was 8.00. Further, the EC (maximum effect) with rabbit jejunum (isolated rabbit jejunum, read-out: concentration required to obtain the maximum effect) is 1 µM. For the same compound, in data set [1], the “effect on the serotonine activity” value was “act as competitive antagonists”. Moreover, in the data set with intestinal transit (9.8 μg/Kg p.o., 15' before the opaque meal), the “% of intestine (from pylorus to anus) travelled by the opaque meal” value was found to be 45.0%. Besides, in the data set with intestinal transit (Mus musculus, po, 9.8 μg/Kg p.o., 15' before the opaque meal, * = p<0.05, read-out: variation in % with respect to the controls), the change in vivo at 0.0098 mg/kg was 11.1%. Also, the “Variation % with respect to the controls” value in the data set with intestinal transit (mouse, dose five times greater than ED50, * = p<0.05) amounted to 6.4%.
On to `COc1cc(N)c(Cl)cc1C(=O)NC1CCN(CCCOc2ccc(F)cc2)CC1OC` (stereo not shown) [cisapride, reference compound], for which, in the data set with rabbit jejunum, the Emax came to 40%. Also, in the data set on rabbit jejunum (isolated rabbit jejunum), the pEC50 is 7.70. Moreover, the cholinesterase inhibition entry in the data set on cholinesterase is given as “practically no”. Moreover, the LD50 (usually the dose expected to kill half of the subjects tested) at 336 h in data set [2] worked out at 35 mg/kg. Also, the ED50 in the data set with intestinal transit (po, mouse, 15' before the opaque meal, read-out: DE50 (the source's name)) amounted to 0.019 mg/kg.
